Target: T1, human TLR9 (Homo sapiens, UniProt Q9NR96)
T1 construct: HA; host or cells: 293XL-hTLR9-HA (HEK293)
T1 sequence (Q9NR96 26-1032): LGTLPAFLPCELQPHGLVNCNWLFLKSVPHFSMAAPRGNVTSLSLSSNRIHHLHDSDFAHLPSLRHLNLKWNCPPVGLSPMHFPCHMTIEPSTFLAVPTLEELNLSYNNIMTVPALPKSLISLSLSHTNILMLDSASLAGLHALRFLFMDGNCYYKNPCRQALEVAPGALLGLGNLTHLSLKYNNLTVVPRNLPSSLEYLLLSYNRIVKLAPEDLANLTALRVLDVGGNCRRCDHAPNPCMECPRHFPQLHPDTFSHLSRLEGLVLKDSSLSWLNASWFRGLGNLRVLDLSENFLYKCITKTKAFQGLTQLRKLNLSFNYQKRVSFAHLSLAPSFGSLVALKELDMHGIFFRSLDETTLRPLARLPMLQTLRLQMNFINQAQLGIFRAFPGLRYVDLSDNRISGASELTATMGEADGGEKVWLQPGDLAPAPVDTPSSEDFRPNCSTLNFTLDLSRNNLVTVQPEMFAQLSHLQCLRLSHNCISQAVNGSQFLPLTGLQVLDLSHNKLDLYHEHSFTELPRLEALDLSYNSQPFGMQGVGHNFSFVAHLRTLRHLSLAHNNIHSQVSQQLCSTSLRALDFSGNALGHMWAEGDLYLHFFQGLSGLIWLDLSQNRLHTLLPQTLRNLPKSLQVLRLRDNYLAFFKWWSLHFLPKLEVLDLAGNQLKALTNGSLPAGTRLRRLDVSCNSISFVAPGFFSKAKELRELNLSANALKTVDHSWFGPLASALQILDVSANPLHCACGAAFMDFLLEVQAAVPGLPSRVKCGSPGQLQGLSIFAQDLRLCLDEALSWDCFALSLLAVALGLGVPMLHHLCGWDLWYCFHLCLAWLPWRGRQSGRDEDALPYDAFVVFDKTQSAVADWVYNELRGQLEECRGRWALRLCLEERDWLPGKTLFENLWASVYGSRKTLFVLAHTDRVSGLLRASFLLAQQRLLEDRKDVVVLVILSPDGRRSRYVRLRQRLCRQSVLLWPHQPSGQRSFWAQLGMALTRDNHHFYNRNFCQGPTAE
Experiment: HEK-TLR9 NF-κB-luciferase reporter, ODN2006 stimulation
Type: cell-based
Settings: averaged NF-κB-Luciferase relative to ODN2006 condition; for TLR9 100 nM: MOE-modified ASO at 100 nM; for TLR9 500 nM: MOE-modified ASO at 500 nM

Sequence	TLR9 100 nM	TLR9 500 nM
GTCCTTGCACGTGGCTTCGT (antisense; 2'-MOE modified, pattern not given here) [EGFR-1013 MOE]	0.682	0.602
GTCTTGGCTTCGTGGAGCAG (antisense; 2'-MOE modified, pattern not given here) [MB21D1-520 MOE]	0.709	0.599
GTGTCCTTGCACGTGGCTTC (antisense; 2'-MOE modified, pattern not given here) [EGFR-1015 MOE]	0.784	0.641
GTGTCTTCATCGGCCCTGCC (antisense; 2'-MOE modified, pattern not given here) [CAMSAP1-2113 MOE]	0.611	0.201
TAGGCACTTTGCCTCCTTCT (antisense; 2'-MOE modified, pattern not given here) [EGFR-2859 MOE]	0.808	0.914
TAGTCAAGGGCATATCCTAC (antisense; 2'-MOE modified, pattern not given here) [HPRT-732 MOE]	0.787	0.462
TCAAAGGACTGAGGAAAGGG (antisense; 2'-MOE modified, pattern not given here) [CAMSAP1-6273 MOE]	0.265	0.040
TCCAACACTTCGTGGGGTCC (antisense; 2'-MOE modified, pattern not given here) [HPRT-667 MOE]	0.792	0.616
TCGCACTTCAGTCTGAGCAG (antisense; 2'-MOE modified, pattern not given here) [MB21D1-719 MOE]	0.521	0.266
TGTCCTTGCACGTGGCTTCG (antisense; 2'-MOE modified, pattern not given here) [EGFR-1014 MOE]	0.764	0.623
TGTCTTCATCGGCCCTGCCT (antisense; 2'-MOE modified, pattern not given here) [CAMSAP1-2112 MOE]	0.697	0.480
TGTGATGGCCTCCCATCTCC (antisense; 2'-MOE modified, pattern not given here) [HPRT-332 MOE]	0.674	0.782
TTCTGCAGCTTCCTTGTCCT (antisense; 2'-MOE modified, pattern not given here) [CTNN2B-2136 MOE]	0.746	0.467
TTGCACACTTCGTACCCAAA (antisense; 2'-MOE modified, pattern not given here) [CAMSAP1-4915 MOE]	0.894	0.524
TTGCCATGCTGGCTCGGACT (antisense; 2'-MOE modified, pattern not given here) [CAMSAP1-2584 MOE]	0.516	0.534
TTGGCTCGGCTTGCCTACTT (antisense; 2'-MOE modified, pattern not given here) [CAMSAP1-5594 MOE]	0.705	0.445
